In patent US9833497B2, “Human originated EGF domain proteins and use of the same” (CHENGDU SOURCEBIO LIMITED-LIABILITY COMPANY, priority 2013, dated 2017):

Assays:
Type in all cases: cell-based
E. coli DH5α = test: Antibacterial activity: MIC and growth curve against E. coli DH5α in 96-well plate; conditions: minimal inhibitory concentration against E. coli DH5α; 96-well plate, 5×10^5 CFU/mL, 37° C., judged after 8 h
Method in brief: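 Log-phase DH5α (OD600 about 0.5, 37° C, 185 rpm in LB) was pelleted, resuspended in fresh LB and seeded at 5×10^5 CFU/mL with recombinant protein at 50, 25 and 12.5 μg/mL (two-fold series), in triplicate. Plates were shaken at 175 rpm, 37° C, and OD600 was read every 30 min. MIC was the lowest concentration with no growth.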

E. coli BL21 = test: MIC against Gram-negative bacteria: E. coli BL21
Method in brief: (§1)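 Broth microdilution, LB medium, final inoculum 5×10^5 CFU/mL from McFarland 0.5 cultures. Recombinant human EGF domain proteins tested in two-fold steps, n=3. MIC: lowest concentration, no growth.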

Pseudomonas aeruginosa = test: MIC against Gram-negative bacteria: Pseudomonas aeruginosa
Method in brief: as §1

Klebsiella pneumonia = test: MIC against Gram-negative bacteria: Klebsiella pneumonia
Method in brief: as §1

Enterobacter cloacae = test: MIC against Gram-negative bacteria: Enterobacter cloacae
Method in brief: as §1

Aeromonas hydrophila = test: MIC against Gram-negative bacteria: Aeromonas hydrophila
Method in brief: as §1

Citrobacter diversus = test: MIC against Gram-negative bacteria: Citrobacter diversus
Method in brief: as §1

Moraxella catarrhalis = test: MIC against Gram-negative bacteria: Moraxella catarrhalis
Method in brief: as §1

Proteus mirabilis = test: MIC against Gram-negative bacteria: Proteus mirabilis
Method in brief: as §1

Proteus vulgaris = test: MIC against Gram-negative bacteria: Proteus vulgaris
Method in brief: as §1

Serratia marcescens = test: MIC against Gram-negative bacteria: Serratia marcescens
Method in brief: as §1

[1] = E. coli BL21, 96-well plate, 5×10^5 CFU/mL, 37° C., 10 h
[2] = Pseudomonas aeruginosa, 96-well plate, 5×10^5 CFU/mL, 37° C., 10 h
[3] = Klebsiella pneumonia, 96-well plate, 5×10^5 CFU/mL, 37° C., 10 h
[4] = Enterobacter cloacae, 96-well plate, 5×10^5 CFU/mL, 37° C., 10 h
[5] = Aeromonas hydrophila, 96-well plate, 5×10^5 CFU/mL, 37° C., 10 h
[6] = Citrobacter diversus, 96-well plate, 5×10^5 CFU/mL, 37° C., 10 h
[7] = Moraxella catarrhalis, 96-well plate, 5×10^5 CFU/mL, 37° C., 10 h
[8] = Proteus mirabilis, 96-well plate, 5×10^5 CFU/mL, 37° C., 10 h
[9] = Proteus vulgaris, 96-well plate, 5×10^5 CFU/mL, 37° C., 10 h
[10] = Serratia marcescens, 96-well plate, 5×10^5 CFU/mL, 37° C., 10 h
[11] = 10 h cultivation at 37° C., 5×10^5 CFU/mL, two-fold serial dilution
[12] = 96-well plate, 5×10^5 CFU/mL, 37° C., 10 h

PRT899 (NINECASNPCLNQGTCIDDVAGYKCNCLLPYTGATCE; listed as Homo sapiens)
50 µg/mL: MIC (Enterobacter cloacae; E. cloacae, 10 h cultivation at 37° C.) | MIC (Citrobacter diversus; C. diversus, 10 h cultivation at 37° C.) | MIC (Proteus mirabilis; P. mirabilis, 10 h cultivation at 37° C.)
12.5 µg/mL: MIC (E. coli DH5α) | MIC (E. coli BL21; E. coli BL21, 10 h cultivation at 37° C.) | MIC (Pseudomonas aeruginosa; P. aeruginosa, 10 h cultivation at 37° C.) | MIC (Klebsiella pneumonia; K. pneumonia, 10 h cultivation at 37° C.) | MIC (Aeromonas hydrophila; A. hydrophila, 10 h cultivation at 37° C.) | MIC (Moraxella catarrhalis; M. catarrhalis, 10 h cultivation at 37° C.) | MIC (Proteus vulgaris; P. vulgaris, 10 h cultivation at 37° C.) | MIC (Serratia marcescens; S. marcescens, 10 h cultivation at 37° C.)

PRT1465 (CECDSLGTLPGTICDPISGQCLCVPNRQGRRCNQCQPGFYISPGNATGCLP; listed as Homo sapiens)
50 µg/mL: MIC against P. aeruginosa (Pseudomonas aeruginosa; Pseudomonas aeruginosa, 5×10^5 CFU/mL, 10 h cultivation at 37° C.) | MIC against A. hydrophila (Aeromonas hydrophila; Aeromonas hydrophila, 5×10^5 CFU/mL, 10 h cultivation at 37° C.) | MIC against P. mirabilis (Proteus mirabilis; Proteus mirabilis, 5×10^5 CFU/mL, 10 h cultivation at 37° C.)
12.5 µg/mL: MIC (E. coli DH5α) | MIC against K. pneumonia (Klebsiella pneumonia; Klebsiella pneumonia, 5×10^5 CFU/mL, 10 h cultivation at 37° C.) | MIC against M. catarrhalis (Moraxella catarrhalis; Moraxella catarrhalis, 5×10^5 CFU/mL, 10 h cultivation at 37° C.) | MIC against S. marcescens (Serratia marcescens; Serratia marcescens, 5×10^5 CFU/mL, 10 h cultivation at 37° C.)
25 µg/mL: MIC against E. coli BL21 (E. coli BL21; E. coli BL21, 5×10^5 CFU/mL, 10 h cultivation at 37° C.) | MIC against E. cloacae (Enterobacter cloacae; Enterobacter cloacae, 5×10^5 CFU/mL, 10 h cultivation at 37° C.) | MIC against C. diversus (Citrobacter diversus; Citrobacter diversus, 5×10^5 CFU/mL, 10 h cultivation at 37° C.) | MIC against P. vulgaris (Proteus vulgaris; Proteus vulgaris, 5×10^5 CFU/mL, 10 h cultivation at 37° C.)

PRT1298 (PINTCIQNPCQHGGTCHLSDSHKDGFSCSCPLGFEGQRCE; listed as Homo sapiens)
25 µg/mL: MIC against E. cloacae (Enterobacter cloacae; [4]) | MIC against S. marcescens (Serratia marcescens; [10])
12.5 µg/mL: MIC (E. coli DH5α) | MIC against P. aeruginosa (Pseudomonas aeruginosa; [2]) | MIC against A. hydrophila (Aeromonas hydrophila; [5]) | MIC against M. catarrhalis (Moraxella catarrhalis; [7]) | MIC against P. vulgaris (Proteus vulgaris; [9])
50 µg/mL: MIC against E. coli BL21 (E. coli BL21; [1]) | MIC against K. pneumonia (Klebsiella pneumonia; [3]) | MIC against C. diversus (Citrobacter diversus; [6]) | MIC against P. mirabilis (Proteus mirabilis; [8])

PRT142 (PCPGRYLRAGKCAELPNCLDDLGGFACECATGFELGKDGRSCV; listed as Homo sapiens)
12.5 µg/mL: MIC (E. coli DH5α) | MIC (μg/mL) E. coli BL21 (E. coli BL21; [1]) | MIC (μg/mL) K. pneumonia (Klebsiella pneumonia; [3]) | MIC (μg/mL) C. diversus (Citrobacter diversus; [6]) | MIC (μg/mL) P. mirabilis (Proteus mirabilis; [8]) | MIC (μg/mL) S. marcescens (Serratia marcescens; [10])
25 µg/mL: MIC (μg/mL) P. aeruginosa (Pseudomonas aeruginosa; [2]) | MIC (μg/mL) E. cloacae (Enterobacter cloacae; [4]) | MIC (μg/mL) A. hydrophila (Aeromonas hydrophila; [5]) | MIC (μg/mL) M. catarrhalis (Moraxella catarrhalis; [7]) | MIC (μg/mL) P. vulgaris (Proteus vulgaris; [9])

PRT1139 (RYNLCDLLHNPCRNNSTCLALVDANQHCICREEFEGKNCE; listed as Homo sapiens)
12.5 µg/mL: MIC (E. coli DH5α) | MIC P. aeruginosa (Pseudomonas aeruginosa; [11]) | MIC A. hydrophila (Aeromonas hydrophila; [11]) | MIC M. catarrhalis (Moraxella catarrhalis; [11]) | MIC P. vulgaris (Proteus vulgaris; [11])
50 µg/mL: MIC E. cloacae (Enterobacter cloacae; [11]) | MIC C. diversus (Citrobacter diversus; [11]) | MIC P. mirabilis (Proteus mirabilis; [11])
25 µg/mL: MIC E. coli BL21 (E. coli BL21; [11]) | MIC K. pneumonia (Klebsiella pneumonia; [11]) | MIC S. marcescens (Serratia marcescens; [11])

PRT552 (CACGPAAEGSECHPQSGQCHCRPGTMGPQCRECAPGYWGLPEQGCRR; listed as Homo sapiens)
25 µg/mL: MIC (E. coli DH5α) | MIC against M. catarrhalis (Moraxella catarrhalis; [12]) | MIC against P. vulgaris (Proteus vulgaris; [12])
50 µg/mL: MIC against P. aeruginosa (Pseudomonas aeruginosa; [12]) | MIC against E. cloacae (Enterobacter cloacae; [12]) | MIC against C. diversus (Citrobacter diversus; [12])
100 µg/mL: MIC against E. coli BL21 (E. coli BL21; [12])
12.5 µg/mL: MIC against K. pneumonia (Klebsiella pneumonia; [12]) | MIC against A. hydrophila (Aeromonas hydrophila; [12]) | MIC against P. mirabilis (Proteus mirabilis; [12]) | MIC against S. marcescens (Serratia marcescens; [12])

PRT113 (DLDECASRSKSGEEDPQPQCQHLCHNYVGGYFCSCRPGYELQEDRHSCQ; listed as Homo sapiens)
50 µg/mL: MIC (μg/mL) E. coli BL21 (E. coli BL21; [1]) | MIC (μg/mL) A. hydrophila (Aeromonas hydrophila; [5]) | MIC (μg/mL) M. catarrhalis (Moraxella catarrhalis; [7])
25 µg/mL: MIC (μg/mL) P. aeruginosa (Pseudomonas aeruginosa; [2]) | MIC (μg/mL) E. cloacae (Enterobacter cloacae; [4])
12.5 µg/mL: MIC (E. coli DH5α) | MIC (μg/mL) K. pneumonia (Klebsiella pneumonia; [3]) | MIC (μg/mL) C. diversus (Citrobacter diversus; [6]) | MIC (μg/mL) P. mirabilis (Proteus mirabilis; [8]) | MIC (μg/mL) P. vulgaris (Proteus vulgaris; [9])
100 µg/mL: MIC (μg/mL) S. marcescens (Serratia marcescens; [10])
